Assay results reported in EP0061711A1, “10B-Carboxyamino boranes, process for their preparation and their use as medicaments in the neutron-capture therapy” (priority 1981, dated 1982).

Experiments:
Sarkom 180 der Maus = experiment: incorporation of 125I-deoxyuridine into sarcoma 180 of the mouse; format: in vivo; settings: in Sarkom 180 der Maus
[1] = acute toxicity (DL50) in the mouse, i.p.; settings: in vivo, ip, Maus
[2] = boron accumulation in tumour tissue versus blood; format: in vivo
gesunden Maus = experiment: incorporation of 125I-deoxyuridine in the healthy mouse; format: in vivo; settings: gesunde Maus
Sarkom 180 = experiment: sarcoma 180 in NMRI mice: tumour size and survival, alone or with gamma rays or thermal neutrons; format: in vivo, NMRI-Mäuse; settings: for überlebende Tiere: 40 Tage after start of treatment
From the text: Die geringe Toxizität der erfindungsgemäß verwendeten Substanz ermöglicht eine so hohe Dosierung, daß sowohl eine begrenzte Eigenwirkung zum Tragen kommt als auch insbesondere eine ausreichende Erhöhung der ^10Bor-Konzentration in den erkrankten Zellen erreicht wird. So wurde festgestellt, daß die Toxizität bei der Maus i.p. eine DL50 um 2000 m^g/k^g ergibt. Pharmakologisch wurde festgestellt, daß N-Trimethyl-^10B-carboxyaminoboran den Einbau von 125 Jod -^desoxyuridin bei der gesunden Maus senkt. Weiterhin senkt es den Einbau von ^125Jod -desoxyuridin in das Sarkom 180 der Maus.
Besonders eindrucksvoll ist die Veränderung der Überlebenszeiten der Sarkom 180 tragenden NMRI-Mäuse. Während 40 Tage nach Beginn der Behandlung von den unbehandelten und den nur mit Neutronen behandelten Tieren ca. 90% am Tumor gestorben sind, überleben zu diesem Zeitpunkt ca. 40% der nur mit N-Trimethyl-^10B-carboxy-aminoboran und ca. 75 % der mit dieser Substanz und Neutronen behandelten Tiere.
Ein Vergleich mit Natriumpentaborat und Neutronen zeigt, daß nur 20 bis 30 % der Sarkom-Tiere überleben.
(§1) Diese pharmakologischen Befunde wurden zunächst noch mit einem N-Trimethyl- B-carboxy-aminoboran erhalten, welches nur 20 % ^10Bor enthielt. Durch Steigerung des ^10Bor-Gehalts auf 80 bis 90% erhöht sich die Antitumorwirkung durch Neutroneneinfang um das. 4 bis 5-fache: • C-57 BL/6j Mäuse mit Adenocarcinom EO 771 werden in drei Gruppen aufgeteilt: • Gruppe 1 dient als Kontrolle Gruppe 2 wird 6 Minuten mit thermischen Neutronen bestrahlt Gruppe 3 erhält 10 mg N-Trimethyl-^10B-carboxyaminoboran intraperitonal (i.p.) und wird nach 6 Stunden - dem Zeitpunkt der optimalen Anreicherung im Tumorgewebe - für 6 Minuten mit thermischen Neutronen bestrahlt.

water solubility = format: physicochemical; settings: for intravenous application
Adenocarcinom EO 771 = experiment: adenocarcinoma EO 771 in C-57 BL/6j mice, neutron capture therapy; format: in vivo, C-57 BL/6j Mäuse; settings: 10 mg i.p., after 6 Stunden 6 Minuten thermische Neutronen
Procedure: as §1

[3] = toxicity compared with the compound of the invention (species not stated)
[4] = therapeutic results in combination with neutrons (model not stated); settings: in Verbindung mit Neutronen, compared with N-Trimethyl-10B-carboxyaminoboran

C[N+](C)(C)[10BH2-]C(=O)O [N-Trimethyl-^10B-carboxyaminoboran]
Einbau von 125Jod -desoxyuridin (Sarkom 180 der Maus): senkt | LD50 [1]: ~2000 mg/kg | Kp ([2]; tumour to blood, 6 bis 12 Stunden after intravenous injection, read-out: Bor-Konzentration im Tumor relative to Blut): 2 to 3 | Tmax ([2]; tumour, ip, after i.p. application, read-out: Zeitpunkt der optimalen Anreicherung im Tumorgewebe): 6 h | Einbau von 125Jod -desoxyuridin (gesunden Maus): senkt | überlebende Tiere (Sarkom 180; substance alone): ca. 40% | überlebende Tiere (Sarkom 180; substance and Neutronen): ca. 75% | Tumorgröße (Sarkom 180; Sarkom 180 der Maus, substance alone): Verkleinerung des Tumors | Tumorwachstum (Sarkom 180; combination with γ-Strahlen): positiv beeinflußt | Tumorvolumen (Sarkom 180; simultaneous treatment with thermischen Neutronen): wesentlich stärker verkleinert als durch die Einzelkomponenten | Wasserlöslichkeit (water solubility): ausreichend wasserlöslich | Tumorgröße (Adenocarcinom EO 771): nimmt der Tumor in Gruppe 3 nach der kombinierten Behandlung an Größe ab | time until tumour is reduced to a minimum (Adenocarcinom EO 771): ~7 Tagen

C[N+](C)(C)[BH2-]C(=O)O [N-Trimethyl- B-carboxy-aminoboran, reference compound]
lokale oder systemische Schäden (Sarkom 180; surviving animals): An keinem der überlebenden Tiere wurden lokale oder systemische Schäden beobachtet

Natriummonomercaptoundecahydrodecaborat
toxicity relative to the compound of the invention [3]: ~5 mal

[NH3+][10BH2-]C(=O)O [Ammoniak- ^10B-carboxyboran, Ammoniak- ^10 B-carboxyboran]
LD50 [1]: ~2500 mg/kg | therapeutische Ergebnisse [4]: Noch bessere therapeutische Ergebnisse
